From patent publication EP4813991A1 (iLeadBMS Co., Ltd., priority 2023, dated 2025) come the findings set out here.

SMILES strings stand for the structures.

Assay type in all cases: cell-based
One assay concerns Cyclin K. The experiment in a line: Analysis of Cyclin K degradation ability in MKN45 gastric cancer cells (western blot). As to conditions: 8 hours or 24 hours, compared to the negative control group (DMSO), FIGs. 4 and 5. How it is done:
In order to confirm the Cyclin K degradation ability of the Example compounds, HCC70 breast cancer cells and MKN45 gastric cancer cells were cultured in RPMI-1640 medium supplemented with 10 % FBS, and then the cells were collected to prepare cell suspensions. The HCC70 breast cancer cell suspension was dispensed at a cell number of 2.0 X 10^6 per 6-well and cultured in a 5 % CO2 cell incubator at 37 °C for 24 hours, and the MKN45 gastric cancer cell suspension was dispensed at a cell number of 5.0 X 10^6 per 6-well and cultured in a 5 % CO2 cell incubator at 37 °C for 24 hours. The next day, each Example compound dissolved and diluted in DMSO across 4 to 5 concentration ranges and a negative control group (DMSO-treated group) were added to the 6-wells, and the HCC70 breast cancer cells were treated for 8 hours while the MKN45 gastric cancer cells were treated with the compounds for 8 hours or 24 hours. After completion of the compound treatment, the medium was removed, each cell was washed with PBS, and then 100 µL of RIPA buffer for cell lysis was added to each 6-well to collect cell lysates. The protein concentration of the cell lysates was quantified by the […], and loading buffer was added to adjust the protein concentration to 30 µg, followed by reaction at 85 °C for 10 minutes, centrifugation, and standing at room temperature. […]
A general note: A western blot detects proteins with antibodies after separation by electrophoresis.

A further assay deals with SW480. Kind of assay: Colorectal cancer cell proliferation inhibitory activity, SW480. As to conditions: Homo sapiens, 72 hours, Cell Counting Kit-8, relative IC50. Here is the method:
(§1) Experiments were performed using seven types of colorectal cancer cell lines to measure the cell proliferation inhibitory ability of each Example compound. DLD-1, LoVo, SW620, SW480, HCT116, HCT15, and HT29 cells were dispensed into a 96-well plate at 100 µL of cell suspension per well using RPMI1640 medium containing 10 % FBS and 1 % PS, followed by incubation in a cell incubator at 37 °C and 5 % CO2. The next day, each Example compound dissolved and diluted in DMSO across 10 concentration ranges and a DMSO control group were treated on the cells for 72 hours. After completion of the compound treatment, 10 µL of Cell Counting Kit-8 (Dojindo) reagent was added to each well of the 96-well plate, followed by incubation for 2 hours. […] were measured after inserting the 96-well plate into an Envision plate reader […]. Relative IC50 values were calculated by fitting a dose-response curve using Graphpad PRISM software.
(§2) The colorectal cancer cell proliferation inhibitory activities of the Example compounds measured by the method described above were evaluated according to the following criteria, and the results are presented in Table 19.
For orientation: Tetrazolium assays rely on reduction of a dye to a coloured formazan, in cell work by metabolically active cells.

The target of the next assay is CDK12 (Homo sapiens, UniProt Q9NYV4). Kind of assay: Cellular CDK12 inhibitory activity assay (Ser2 phosphorylation of RNA polymerase II subunit B1 CTD in MDA-MB-231 cells). Further details: using MDA-MB-231 breast cancer cells; endogenous in cells; host or cells: MDA-MB-231. The following applies: MDA-MB-231 cells, 6 hours treatment; read-out: pRpbl CTD S2 IC50. A digest of the protocol:
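MDA-MB-231 cells in L-15 with 10 % FBS were treated with compound at 9 concentrations for 6 h at 37 °C, 0 % CO2. In-Cell Western read phospho-Ser2 and total RNA polymerase II CTD on a Li-COR Odyssey; IC50 from 4-parameter dose-response fit.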

A further assay relates to AGS cells. The experiment in a line: Gastric cancer cell proliferation inhibitory activity (Cell Counting Kit-8), AGS. The following applies: Homo sapiens, 72 hours, Cell Counting Kit-8, relative IC50. Here is the method: as §1, with “six” for “seven”, “gastric” for “colorectal”, “NCI-N87, SNU601, KATO-III, MKN1,” for “DLD-1, LoVo, SW620, SW480, HCT116, HCT15,”, “AGS” for “HT29”, “RPMI1640 medium containing 10 % FBS and 1 % PS, followed by incubation in a cell incubator at 37 °C and 5 % CO2. HS746T cells were dispensed into a 96-well plate at 100 µL of cell suspension per well using DMEM” for “RPMI1640”
(§3) The gastric cancer cell proliferation inhibitory activities of the Example compounds measured by the method described above were evaluated according to the following criteria, and the results are presented in Table 20.

A further assay deals with MKN1. Kind of assay: Gastric cancer cell proliferation inhibitory activity (Cell Counting Kit-8), MKN1. The following applies: Homo sapiens, MKN-1; 72 hours, Cell Counting Kit-8, relative IC50. How it is done: as §1, with “six” for “seven”, “gastric” for “colorectal”, “NCI-N87, SNU601, KATO-III, MKN1,” for “DLD-1, LoVo, SW620, SW480, HCT116, HCT15,”, “AGS” for “HT29”, “RPMI1640 medium containing 10 % FBS and 1 % PS, followed by incubation in a cell incubator at 37 °C and 5 % CO2. HS746T cells were dispensed into a 96-well plate at 100 µL of cell suspension per well using DMEM” for “RPMI1640”
as §3

The next assay deals with HCT15. Kind of assay: Colorectal cancer cell proliferation inhibitory activity, HCT15. As to conditions: Homo sapiens, HCT-15; 72 hours, Cell Counting Kit-8, relative IC50. How it is done:
as §1, §2

Broadly, the IC50 is the concentration that gives 50% inhibition.

CDK12, sequence (Q9NYV4 whole entry, species assumed): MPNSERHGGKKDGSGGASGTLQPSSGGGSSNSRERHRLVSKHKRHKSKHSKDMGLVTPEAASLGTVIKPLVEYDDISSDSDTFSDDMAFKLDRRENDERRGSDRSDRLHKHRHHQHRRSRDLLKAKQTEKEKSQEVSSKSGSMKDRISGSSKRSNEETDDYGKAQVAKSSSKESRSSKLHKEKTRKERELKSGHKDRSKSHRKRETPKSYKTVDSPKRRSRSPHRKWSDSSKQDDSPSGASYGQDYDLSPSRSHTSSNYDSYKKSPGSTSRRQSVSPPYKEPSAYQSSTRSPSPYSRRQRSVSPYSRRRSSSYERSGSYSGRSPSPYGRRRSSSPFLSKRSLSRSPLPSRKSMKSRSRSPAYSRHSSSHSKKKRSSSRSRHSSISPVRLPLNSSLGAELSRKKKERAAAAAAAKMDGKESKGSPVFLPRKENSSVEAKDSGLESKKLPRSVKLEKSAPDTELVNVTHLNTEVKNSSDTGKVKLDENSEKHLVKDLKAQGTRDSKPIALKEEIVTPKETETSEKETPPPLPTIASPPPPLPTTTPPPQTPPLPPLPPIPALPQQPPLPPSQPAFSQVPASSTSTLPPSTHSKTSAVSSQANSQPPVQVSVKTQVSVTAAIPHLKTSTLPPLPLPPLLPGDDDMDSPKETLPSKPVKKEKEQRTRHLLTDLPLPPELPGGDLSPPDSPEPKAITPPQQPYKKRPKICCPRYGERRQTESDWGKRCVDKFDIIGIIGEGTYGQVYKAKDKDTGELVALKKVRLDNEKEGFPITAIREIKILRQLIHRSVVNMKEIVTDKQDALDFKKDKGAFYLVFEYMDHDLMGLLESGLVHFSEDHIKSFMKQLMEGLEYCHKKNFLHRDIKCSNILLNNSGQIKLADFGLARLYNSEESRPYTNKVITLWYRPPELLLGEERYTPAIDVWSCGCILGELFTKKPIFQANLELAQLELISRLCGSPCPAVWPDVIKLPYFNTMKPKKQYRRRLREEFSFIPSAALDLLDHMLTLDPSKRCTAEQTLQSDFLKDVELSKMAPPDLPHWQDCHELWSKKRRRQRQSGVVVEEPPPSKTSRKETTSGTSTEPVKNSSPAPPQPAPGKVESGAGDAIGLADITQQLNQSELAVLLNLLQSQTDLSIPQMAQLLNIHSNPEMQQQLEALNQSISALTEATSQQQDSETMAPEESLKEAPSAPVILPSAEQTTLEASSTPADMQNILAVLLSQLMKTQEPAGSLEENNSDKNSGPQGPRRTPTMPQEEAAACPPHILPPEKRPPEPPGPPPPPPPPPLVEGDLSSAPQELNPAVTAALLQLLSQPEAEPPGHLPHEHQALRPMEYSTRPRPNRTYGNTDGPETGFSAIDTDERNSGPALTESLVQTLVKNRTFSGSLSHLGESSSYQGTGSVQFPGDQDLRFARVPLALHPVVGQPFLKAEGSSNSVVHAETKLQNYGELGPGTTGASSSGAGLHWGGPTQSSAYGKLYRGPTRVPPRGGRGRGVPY
CDK12, sequence (O75909 whole entry partner, species assumed): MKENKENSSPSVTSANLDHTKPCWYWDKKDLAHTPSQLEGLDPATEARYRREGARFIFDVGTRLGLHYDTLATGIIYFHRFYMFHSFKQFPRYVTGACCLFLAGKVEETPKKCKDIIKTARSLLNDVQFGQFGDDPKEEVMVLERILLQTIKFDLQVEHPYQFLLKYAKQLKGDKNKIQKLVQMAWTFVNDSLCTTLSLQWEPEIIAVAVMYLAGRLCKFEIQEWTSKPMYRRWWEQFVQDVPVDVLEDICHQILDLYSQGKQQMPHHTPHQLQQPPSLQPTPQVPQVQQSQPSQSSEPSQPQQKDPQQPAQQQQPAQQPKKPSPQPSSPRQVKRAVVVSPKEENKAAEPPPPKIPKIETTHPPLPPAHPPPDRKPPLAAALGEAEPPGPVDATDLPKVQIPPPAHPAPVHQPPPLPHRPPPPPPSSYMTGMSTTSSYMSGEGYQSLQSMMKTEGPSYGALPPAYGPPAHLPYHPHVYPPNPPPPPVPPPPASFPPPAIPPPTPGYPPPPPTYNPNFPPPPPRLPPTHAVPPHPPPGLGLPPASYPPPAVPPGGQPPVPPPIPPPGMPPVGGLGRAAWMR

On to `Nc1ncc(-c2cc(NCc3nc4cc(Cl)c(Cl)cc4[nH]3)c3ncc(C(F)(F)F)n3n2)cn1` [Example 40], for which the “Cyclin K degradation ability” value in the assay with Cyclin K was “strongly degrade Cyclin K”. The IC50 was not above 200 nM in the assay on SW480; less than 300 nM at CDK12; not above 200 nM with AGS cells; not above 200 nM with MKN1; not above 200 nM with HCT15.
Regarding `N#CC1CN(c2cc(NCc3nc4cc(Cl)c(Cl)cc4[nH]3)c3ncc(C(F)(F)F)n3n2)C1` [Example 30, 1-(8-(((5,6-dichloro-1H-benzol[d]imidazol-2-yl)methyl)amino)-3-(trifluoromethyl)imidazo[1,2-b]pyridazin-6-yl)azetidine-3-carbonitrile], on CDK12, the IC50 is less than 300 nM.
In the case of `CN1CCN(c2cc(NCc3nc4ccc(F)c(F)c4[nH]3)c3ncc(C(F)(F)F)n3n2)CC1` [Example 8, N-((6,7-difluoro-1H-benzo[d]imidazol-2-yl)methyl)-6-(4-methylpiperazin-1-yl)-3-(trifluoromethyl)imidazo[1,2-b]pyridazin-8-amine], the “Cyclin K degradation ability” value with Cyclin K is “strongly degrade Cyclin K”. Further, the IC50 in the assay with SW480 was not above 200 nM; at CDK12 it was less than 300 nM; in the assay on AGS cells, not above 200 nM; in the assay on MKN1, not above 200 nM; in the assay with HCT15 it was not above 200 nM.
With `CN1CCN(c2cc(NCc3nc4cc(Cl)c(Cl)cc4[nH]3)c3ncc(C(F)(F)F)n3n2)CC1` [Example 29, N-((5,6-dichloro-1H-benzo[d]imidazol-2-yl)methyl)-6-(4-methylpiperazin-1-yl)-3-(trifluoromethyl)imidazo[1,2-b]pyridazin-8-amine], on CDK12, the IC50 was less than 300 nM.
